The values that follow come from ChEMBL document CHEMBL5131487, “Synthesis and biological evaluation of tetrahydroisoquinoline-derived antibacterial compounds” (Bioorg Med Chem, 2022).

SMILES strings stand for the structures. The source made the active and inactive calls. The calls are words filed in the database; no cut-off is given here. Some results are limits rather than exact numbers.

Series [1] deals with Bacillus subtilis. Put plainly: Antibacterial activity against Bacillus subtilis 168 assessed as inhibition of bacterial growth incubated for 20 hrs by CLSI broth microdilution method. It counts as functional.
Series [2] deals with Staphylococcus aureus. Put plainly: Antibacterial activity against Staphylococcus aureus ATCC 25923 assessed as inhibition of bacterial growth incubated for 20 hrs by CLSI broth microdilution method. It counts as functional.
Another series concerns Escherichia coli. Put plainly: Antibacterial activity against Escherichia coli MG1655 assessed as inhibition of bacterial growth incubated for 20 hrs by CLSI broth microdilution method. The series is classed as functional.
In series [3] the test system is 3T3-L1. Put plainly: Cytotoxicity against mouse 3T3-L1 cells assessed as reduction in cell viability at 12.5 ug/ml measured after 24 hrs by MTT assay. Conditions: 3t3-l1, 24 h, dose 12.5 µg/ml. It counts as toxicity, cell-based.
Series [4] deals with Bacillus subtilis. Put plainly: Bactericidal activity against Bacillus subtilis 168 at 4 ug/ml incubated for 20 hrs in CAMHB followed by culturing onto CAMHA for 48 hrs by colony counting analysis. It counts as functional, organism-based. Conditions: dose 4.0 µg/ml, time 68.0 hrs.
The test system of series [5] is Staphylococcus aureus. Put plainly: Bactericidal activity against Staphylococcus aureus ATCC 25923 at 4 ug/ml incubated for 20 hrs in CAMHB followed by culturing onto CAMHA for 48 hrs by colony counting analysis. It counts as functional, organism-based. As to conditions: dose 4.0 µg/ml, time 68.0 hrs.
Series [6] has as its system 3T3-L1. Put plainly: Cytotoxicity against mouse 3T3-L1 cells assessed as reduction in cell viability at 25 ug/ml measured after 24 to 72 hrs by MTT assay. The series is classed as toxicity, cell-based. Conditions: time 24-72 hrs, dose 25 µg/ml.
For another series, the system named is Enterococcus faecium. Put plainly: Antibacterial activity against Enterococcus faecium assessed as inhibition of bacterial growth incubated for 20 hrs by CLSI broth microdilution method. It counts as functional.
Another series relates to Acinetobacter baumannii. Description: Antibacterial activity against Acinetobacter baumannii assessed as inhibition of bacterial growth incubated for 20 hrs by CLSI broth microdilution method. The series is classed as functional.
The subject of series [7] is Bacillus subtilis. Description: Induction of phenotypic changes in Bacillus subtilis 168 assessed as disruption of peptidoglycan synthesis by measuring inconsistency in NADA stain distribution throughout the cell at 4XMIC measured after 60 mins by NADA staining based fluorescent microscopy. The series is classed as functional.
Another series deals with Acinetobacter baylyi. Put plainly: Antibacterial activity against Acinetobacter baylyi assessed as inhibition of bacterial growth incubated for 20 hrs by CLSI broth microdilution method. It counts as functional.
The subject of series [8] is Bacillus subtilis. Put plainly: Induction of phenotypic changes in Bacillus subtilis 168 assessed as bacterial population with bulging phenotype at 4XMIC measured after 1 hr by phase contrast microscopic analysis. It counts as functional.
The test system of series [9] is Bacillus subtilis. Description: Induction of phenotypic changes in Bacillus subtilis 168 assessed as bacterial population with localized swelling at 4XMIC measured after 1 hr by phase contrast microscopic analysis. The series is classed as functional.
In a further series the test system is Streptococcus pneumoniae. Description: Antibacterial activity against Streptococcus pneumoniae assessed as inhibition of bacterial growth incubated for 20 hrs by CLSI broth microdilution method. The series is classed as functional.
Series [10] deals with Staphylococcus aureus. Put plainly: Antibacterial activity against Staphylococcus aureus ATCC 25923 assessed as inhibition of bacterial growth measured after repeated 30 day serial passage treatment by broth microdilution method. The series is classed as functional, organism-based.
The test system of series [11] is Mycobacterium tuberculosis. Description: Antibacterial activity against Mycobacterium tuberculosis H37Rv assessed as inhibition of bacterial growth at 20 uM. It counts as functional.
The nature of series [12]: Induction of phenotypic changes in Bacillus subtilis 168 assessed as abundance of ghost cells at 4XMIC measured after 1 hr by phase contrast microscopic analysis. The series is classed as functional.
The nature of series [13]: (§1) Cytotoxicity against African green monkey Vero cells assessed as inhibition of cell growth at 50 ug/ml. The series is classed as toxicity, cell-based. As to conditions: chlorocebus sabaeus, Vero cells, at 50 µg/mL.
Series [14] relates to Mycobacterium tuberculosis. Description: Antibacterial activity against Mycobacterium tuberculosis H37Rv assessed as inhibition of bacterial growth. It counts as functional.
The nature of series [15]: Cytotoxicity against mouse 3T3-L1 cells assessed as cell viability at 25 ug/ml measured after 24 to 72 hrs by MTT assay relative to control. The series is classed as toxicity, cell-based. Conditions: at 25 µg/mL, time 24-72 hrs, read-out: Activity.
In the next series the test system is Vero. The description is as §1. The series is classed as toxicity, cell-based. Conditions: chlorocebus sabaeus, vero; dose 50 µg/ml.

For `COc1cc2c(cc1OC)C[N+](Cc1cn(-c3ccc(COc4ccccc4)cc3)nn1)(Cc1cn(-c3ccc(COc4ccccc4)cc3)nn1)CC2`, the MIC95 is 32 mg/L with Bacillus subtilis [1], 32 mg/L in the series on Staphylococcus aureus [2] and over 128 mg/L with Escherichia coli.

For `COc1cc2c(cc1OC)C[N+](Cc1cn(-c3ccc(Cl)cc3)nn1)(Cc1cn(-c3ccc(Cl)cc3)nn1)CC2`, the MIC95 with Bacillus subtilis [1] is 32 mg/L; in the series with Staphylococcus aureus [2], 32 mg/L; with Escherichia coli, over 128 mg/L.

Turning to `COc1ccc(-n2cc(C[N+]3(Cc4cn(-c5ccc(OC)cc5)nn4)CCc4cc(OC)c(OC)cc4C3)nn2)cc1`, the MIC95 with Bacillus subtilis [1], with Staphylococcus aureus [2] and in the series on Escherichia coli was over 128 mg/L each time.

In the case of `COc1cc2c(cc1OC)C(Cc1ccccc1)[N+](Cc1cn(-c3ccc(C(C)(C)C)cc3)nn1)(Cc1cn(-c3ccc(C(C)(C)C)cc3)nn1)CC2` (centres undefined), the MIC95 in the series with Staphylococcus aureus [2] was 2 mg/L; with Escherichia coli, over 128 mg/L. Also, the Activity result in the series on 3T3-L1 [3] is “Toxic”.

Regarding `COc1cc2c(cc1OC)C[N+](Cc1cn(-c3ccoc3)nn1)(Cc1cn(-c3ccoc3)nn1)CC2`, the MIC95 in the series on Bacillus subtilis [1], in the series with Staphylococcus aureus [2] and with Escherichia coli was over 128 mg/L in each case.

Turning to `COc1cc2c(cc1OC)C[N+](Cc1cn(-c3ccc(C#N)cc3)nn1)(Cc1cn(-c3ccc(C#N)cc3)nn1)CC2`, the MIC95 in the series on Bacillus subtilis [1], in the series with Staphylococcus aureus [2] and in the series with Escherichia coli was over 128 mg/L throughout.

Regarding `COc1cc2c(cc1OC)C[N+](Cc1cn(-c3ccc(OCc4ccccc4)cc3F)nn1)(Cc1cn(-c3ccc(OCc4ccccc4)cc3F)nn1)CC2`, the MIC95 in the series on Bacillus subtilis [1] is 4 mg/L; in the series with Staphylococcus aureus [2] it was 4 mg/L; with Escherichia coli, over 128 mg/L. The result in the series on Bacillus subtilis [4] and in the series on Staphylococcus aureus [5] was Active. For the same compound, in the series with 3T3-L1 [6], the Activity result is “Toxic”.

Consider `COc1cc2c(cc1OC)C[N+](Cc1cn(-c3ccc(C(F)(F)F)cc3C(F)(F)F)nn1)(Cc1cn(-c3ccc(C(F)(F)F)cc3C(F)(F)F)nn1)CC2`, for which the MIC95 was 32 mg/L with Bacillus subtilis [1], 32 mg/L with Staphylococcus aureus [2] and over 128 mg/L in the series on Escherichia coli.

Turning to `COc1cc2c(cc1OC)C[N+](Cc1cn(-c3ccc([N+](=O)[O-])cc3)nn1)(Cc1cn(-c3ccc([N+](=O)[O-])cc3)nn1)CC2`, the MIC95 in the series with Bacillus subtilis [1], in the series with Staphylococcus aureus [2] and with Escherichia coli was over 128 mg/L throughout.

`COc1cc2c(cc1OC)C[N+](Cc1cn(-c3ccc4ccccc4c3)nn1)(Cc1cn(-c3ccc4ccccc4c3)nn1)CC2`: the MIC95 with Bacillus subtilis [1] is 32 mg/L; in the series on Staphylococcus aureus [2], 32 mg/L; in the series on Escherichia coli it was over 128 mg/L.

Consider `COc1cc2c(cc1OC)C[N+](Cc1cn(-c3ccc(C(=O)N(C)C)cc3)nn1)(Cc1cn(-c3ccc(C(=O)N(C)C)cc3)nn1)CC2`, for which the MIC95 with Bacillus subtilis [1], in the series with Staphylococcus aureus [2] and in the series on Escherichia coli was over 128 mg/L each time.

Turning to `COc1cc2c(cc1OC)C[N+](Cc1cn(-c3ccc(C(C)(C)C)cc3)nn1)(Cc1cn(-c3ccc(C(C)(C)C)cc3)nn1)CC2`, the MIC95 in the series with Bacillus subtilis [1] was 4 mg/L; in the series on Enterococcus faecium, 8 mg/L; in the series on Staphylococcus aureus [2], 4 mg/L; in the series with Acinetobacter baumannii, 128 mg/L; with Acinetobacter baylyi, 128 mg/L; in the series on Streptococcus pneumoniae it was 8 mg/L. Further, the MIC95 with Escherichia coli was over 128 mg/L. Moreover, the outcome in the series on Bacillus subtilis [4], with Staphylococcus aureus [5], with Bacillus subtilis [7] and in the series on Staphylococcus aureus [10] was Active. The Activity in the series on Bacillus subtilis [8] was 10%; in the series with Bacillus subtilis [9] it was 20%; in the series with 3T3-L1 [6] it was “Toxic”; in series [12], over 50%. The inhibition at 20 µM in series [11] is over 90%. Also, the inhibition at 50 ug/ml in series [13] was 89%. Also, in series [14], the MIC was 6 mg/L.

Turning to `COc1cccc(CC2c3cc(OC)c(OC)cc3CC[N+]2(Cc2cn(-c3ccc(C(C)(C)C)cc3)nn2)Cc2cn(-c3ccc(C(C)(C)C)cc3)nn2)c1` (centres undefined), the MIC95 in the series with Staphylococcus aureus [2] was 4 mg/L; in the series with Escherichia coli it was over 128 mg/L. Also, the Activity result in the series with 3T3-L1 [3] is listed as “Toxic”.

Consider `COc1cc2c(cc1OC)C[N+](Cc1cn(-c3ccc(OCc4ccccc4)c(F)c3)nn1)(Cc1cn(-c3ccc(OCc4ccccc4)c(F)c3)nn1)CC2`, for which the MIC95 in the series with Bacillus subtilis [1] is 4 mg/L; in the series on Staphylococcus aureus [2] it was 4 mg/L; in the series on Escherichia coli, over 128 mg/L. In addition, the outcome in the series on Bacillus subtilis [4] and in the series with Staphylococcus aureus [5] was Active. In addition, the viability at 25 ug/ml in [15] was over 85%. Besides, the Activity result with Vero is on record as “Non-Toxic”.

As to `COc1cc2c(cc1OC)C[N+](Cc1cn(-c3ccccc3)nn1)(Cc1cn(-c3ccccc3)nn1)CC2`, the MIC95 with Staphylococcus aureus [2] and with Escherichia coli was over 128 mg/L throughout.

In the case of `COc1cc2c(cc1OC)C[N+](Cc1cn(-c3ccc(Cl)nc3Cl)nn1)(Cc1cn(-c3ccc(Cl)nc3Cl)nn1)CC2`, the MIC95 in the series with Bacillus subtilis [1], with Staphylococcus aureus [2] and in the series on Escherichia coli was over 128 mg/L in each case.

Regarding `COc1cc2c(cc1OC)C[N+](Cc1cn(-c3cc(C(F)(F)F)cc(C(F)(F)F)c3)nn1)(Cc1cn(-c3cc(C(F)(F)F)cc(C(F)(F)F)c3)nn1)CC2`, the MIC95 was over 128 mg/L with Bacillus subtilis [1], 8 mg/L with Staphylococcus aureus [2] and over 128 mg/L in the series on Escherichia coli.

Consider `COc1cc2c(cc1OC)C[N+](Cc1cn(-c3ccc(-c4ccccc4)cc3)nn1)(Cc1cn(-c3ccc(-c4ccccc4)cc3)nn1)CC2`, for which the MIC95 with Staphylococcus aureus [2] is 32 mg/L; with Escherichia coli, over 128 mg/L.
